ChEMBL document CHEMBL1146171, “Discovery and initial development of a novel class of antibacterials: inhibitors of Staphylococcus aureus transcription/translation” (Bioorg Med Chem Lett, 2006)
In brackets after ≈: the same amount, converted by molar mass.

Legend:
Assay type in all cases: functional
Staphylococcus aureus [1] = test: Antibacterial activity against Staphylococcus aureus
Staphylococcus aureus [2] = test: Inhibition of coupled transcription/translation in Staphylococcus aureus at 100 uM; conditions: for IC50 / inhibition at 100 µM: Staphylococcus aureus
Staphylococcus aureus [3] = test: Inhibition of coupled transcription/translation in Staphylococcus aureus at 30 uM
[4] = Staphylococcus aureus, read-out: MIC

MIC (Staphylococcus aureus [1]; [4]) [µg/mL] | IC50 (Staphylococcus aureus [2]) [µM] | MIC (Staphylococcus aureus [1]) [µg/mL] | SMILES | inhibition at 100 µM (Staphylococcus aureus [2]) [%] | inhibition at 30 µM (Staphylococcus aureus [3]) [%] | Inhibition (Staphylococcus aureus [2]) [%]
16 (≈ 28.7 µM) | 30 |  | CC1(c2ccccc2)CCCN(S(=O)(=O)c2ccc(C(=O)Nc3ccc(Br)cc3C(=O)O)cc2)C1 (stereo unspecified) | 96 |  | 
2 (≈ 3.78 µM) | 55 |  | CC1(C)Cc2ccccc2N1S(=O)(=O)c1ccc(C(=O)Nc2ccc(Br)cc2C(=O)O)cc1 | 87 |  | 
8 (≈ 16.5 µM) |  |  | CCCN(CCC)S(=O)(=O)c1ccc(C(=O)Nc2ccc(Br)cc2C(=O)O)cc1 | 61 |  | 
> 128 |  |  | O=C(Nc1cc(F)c(F)cc1C(=O)O)c1ccc(S(=O)(=O)Nc2cccc(C(F)(F)F)c2)cc1 | 55 |  | 
16 (≈ 30.9 µM) |  |  | CCCN(c1ccccc1)S(=O)(=O)c1ccc(C(=O)Nc2ccc(Br)cc2C(=O)O)cc1 | 80 |  | 
> 128 |  |  | CCCN(CCC)S(=O)(=O)c1ccc(C(=O)Nc2ccc3ccccc3c2)cc1 | 10 |  | 
8 (≈ 14.9 µM) |  |  | O=C(Nc1ccc(Br)cc1C(=O)O)c1ccc(S(=O)(=O)N2CCCC23CCC(O)CC3)cc1 (stereo unspecified) | 22 |  | 
64 (≈ 128 µM) |  |  | N#Cc1cccc(NS(=O)(=O)c2ccc(C(=O)Nc3ccc(Br)cc3C(=O)O)cc2)c1 | 30 |  | 
16 (≈ 28.3 µM) |  |  | CCCN(c1ccccc1)S(=O)(=O)c1ccc(C(=O)Nc2ccc(I)cc2C(=O)O)cc1 | 90 |  | 
32 (≈ 57.3 µM) |  |  | O=C(Nc1ccc(Br)cc1C(=O)O)c1ccc(S(=O)(=O)N2CCC(Nc3ccccc3)CC2)cc1 | 62 |  | 
1 (≈ 1.87 µM) | 40 | 0.5 (≈ 0.933 µM) | O=C(Nc1ccc(Br)cc1C(=O)O)c1ccc(S(=O)(=O)N2CCc3ccc(Cl)cc32)cc1 | 96 | 93 | 
> 128 |  |  | CN(c1ccc(Cl)cc1)S(=O)(=O)c1ccc(C(=O)Nc2ccc(F)cc2C(=O)O)cc1 | 30 |  | 
8 (≈ 13.8 µM) |  |  | O=C(Nc1ccc(Br)cc1C(=O)O)c1ccc(S(=O)(=O)Nc2cccc(OCc3ccccc3)c2)cc1 | 75 |  | 
16 (≈ 28.7 µM) | 28 |  | O=C(Nc1ccc(Br)cc1C(=O)O)c1ccc(S(=O)(=O)N2CCC(Cc3ccccc3)CC2)cc1 | 98 |  | 
8 (≈ 15.3 µM) |  | 16 (≈ 30.5 µM) | CN(c1ccc(Cl)cc1)S(=O)(=O)c1ccc(C(=O)Nc2ccc(Br)cc2C(=O)O)cc1 | 75 |  | 80
16 (≈ 34.2 µM) |  |  | O=C(Nc1ccc(Br)cc1C(=O)O)c1ccc(S(=O)(=O)N2CCCCC2)cc1 |  |  | 35
32 (≈ 62.1 µM) |  |  | COCCN(CCOC)S(=O)(=O)c1ccc(C(=O)Nc2ccc(Br)cc2C(=O)O)cc1 | 10 |  | 
8 (≈ 14.7 µM) | 55 |  | O=C(Nc1ccc(Br)cc1C(=O)O)c1ccc(S(=O)(=O)N2CCC(c3ccccc3)CC2)cc1 | 96 |  | 
0.25 (≈ 0.472 µM) |  |  | Cc1ccc(C(=O)Nc2ccc(Br)cc2C(=O)O)cc1S(=O)(=O)NC1Cc2ccccc2C1 |  | 20 | 
0.25 (≈ 0.421 µM) |  |  | O=C(Nc1ccc(Br)cc1C(=O)O)c1cc(S(=O)(=O)NC2Cc3ccccc3C2)ccc1Br |  | 30 | 
4 (≈ 7.88 µM) | 60 |  | O=C(Nc1ccc(Br)cc1C(=O)O)c1ccc(S(=O)(=O)N2CC3CCCC(C3)C2)cc1 | 88 |  | 
64 (≈ 134 µM) |  |  | CN(c1ccc(Cl)cc1)S(=O)(=O)c1ccc(C(=O)Nc2cc(Cl)ccc2C(=O)O)cc1 | 47 |  | 

MIC (Staphylococcus aureus [1]; [4]) [µg/mL] | IC50 (Staphylococcus aureus [2]) [µM] | MIC (Staphylococcus aureus [1]) [µg/mL] | SMILES | inhibition at 100 µM (Staphylococcus aureus [2]) [%] | inhibition at 30 µM (Staphylococcus aureus [3]) [%] | Inhibition (Staphylococcus aureus [2]) [%]
0.5 (≈ 0.817 µM) |  |  | O=C(Nc1ccc(Br)cc1C(=O)O)c1cc(S(=O)(=O)Nc2ccc3c(c2)OCCO3)ccc1Br |  | 15 | 
16 (≈ 33.4 µM) |  |  | CN(c1ccc(Cl)cc1)S(=O)(=O)c1ccc(C(=O)Nc2ccc(Cl)cc2C(=O)O)cc1 | 85 |  | 
16 (≈ 31.7 µM) |  |  | COc1cccc(NS(=O)(=O)c2ccc(C(=O)Nc3ccc(Br)cc3C(=O)O)cc2)c1 | 20 |  | 
32 (≈ 67.7 µM) |  |  | CCCN(c1ccccc1)S(=O)(=O)c1ccc(C(=O)Nc2ccc(Cl)cc2C(=O)O)cc1 | 50 |  | 
8 (≈ 16.2 µM) |  |  | O=C(Nc1ccc(Br)cc1C(=O)O)c1ccc(S(=O)(=O)N2CC3CCC2CC3)cc1 | 57 |  | 
> 128 |  |  | CCCN(CCC)S(=O)(=O)c1ccc(C(=O)Nc2cc3ccccc3cc2O)cc1 | 10 |  | 
> 128 |  |  | CN(c1ccc(Cl)cc1)S(=O)(=O)c1ccc(C(=O)Nc2ccc(Cl)c(C(=O)O)c2)cc1 | 10 |  | 
32 (≈ 61.6 µM) |  |  | COc1ccc(N(C)S(=O)(=O)c2ccc(C(=O)Nc3ccc(Br)cc3C(=O)O)cc2)cc1 | 50 |  | 
> 128 |  |  | COc1ccc(NC(=O)c2ccc(S(=O)(=O)Nc3cccc(C(F)(F)F)c3)cc2)c(C(=O)O)c1 | 35 |  | 
> 128 |  |  | O=C(Nc1ccc(Br)cc1C(=O)O)c1ccc(S(=O)(=O)N2CCC[C@@H]2CO)cc1 | 19 |  | 
64 (≈ 141 µM) |  |  | CCCN(CCC)S(=O)(=O)c1ccc(C(=O)Nc2cc3ccccc3cc2C(=O)O)cc1 | 30 |  | 
1 (≈ 1.87 µM) | 80 |  | O=C(Nc1ccc(Br)cc1C(=O)O)c1ccc(S(=O)(=O)N2CCc3cc(Cl)ccc32)cc1 | 71 |  | 
> 128 |  |  | COC(=O)c1cc(Br)ccc1NC(=O)c1ccc(S(=O)(=O)Nc2cccc(OCc3ccccc3)c2)cc1 | 4 |  | 
128 (≈ 283 µM) |  |  | CCCN(c1ccccc1)S(=O)(=O)c1ccc(C(=O)Nc2ccc(C)cc2C(=O)O)cc1 | 34 |  | 
4 (≈ 7.98 µM) |  |  | O=C(Nc1ccc(Br)cc1C(=O)O)c1ccc(S(=O)(=O)N2Cc3ccccc3C2)cc1 | 77 |  | 
16 (≈ 31.4 µM) |  |  | O=C(Nc1ccc(Br)cc1C(=O)O)c1ccc(S(=O)(=O)Nc2ccc(Cl)cc2)cc1 | 45 |  | 
4 (≈ 7.67 µM) | 60 |  | O=C(Nc1ccc(Br)cc1C(=O)O)c1ccc(S(=O)(=O)N2CCCC23CCCCC3)cc1 | 90 |  | 
> 128 |  |  | CCCN(CCC)S(=O)(=O)c1ccc(C(=O)Nc2c(OC)cc(OC)cc2C(=O)O)cc1 | 0 |  | 
> 128 |  |  | Cc1cc(Br)ccc1NC(=O)c1ccc(S(=O)(=O)N(C)c2ccc(Cl)cc2)cc1 | 12 |  | 
8 (≈ 15.5 µM) | 60 |  | O=C(Nc1ccc(Br)cc1C(=O)O)c1ccc(S(=O)(=O)N2CCc3ccccc3C2)cc1 | 84 |  | 
8 (≈ 14.7 µM) |  |  | O=C(Nc1ccc(Br)cc1C(=O)O)c1ccc(S(=O)(=O)Nc2cccc(C(F)(F)F)c2)cc1 | 65 |  | 
16 |  |  | Cl.O=C(Nc1ccc(Br)cc1C(=O)O)c1ccc(S(=O)(=O)N2CCCCC2)cc1 | 34 |  | 
